Results from ChEMBL document CHEMBL1136043, “Synthesis of (+)-Lasonolide A: (-)-lasonolide A is the biologically active enantiomer” (2002).

Columns and labels:
Assay type in all cases: functional
[1] = system: HCT-116; experiment: Concentration required for growth inhibition human of human colon cancer cell line HCT116
[2] = system: A549; experiment: Concentration required for growth inhibition of human lung carcinoma cell line A549
[3] = system: NCI-H460; experiment: Concentration required for growth inhibition of human lung carcinoma cell line NCI-H460

C=C(CCC(C)C)COC(=O)[C@@H](O)C/C=C\C[C@H]1O[C@H]2/C=C/C/C=C/C(C)=C\[C@@H]3O[C@H](C/C=C/C=C/C(=O)O[C@@H](C2)[C@]1(C)CO)C[C@@H](O)[C@@H]3C
GI50 [1]: 2000 nM
GI50 [2]: 6000 nM
GI50 [3]: 3000 nM

C=C(CCC(C)C)COC(=O)[C@H](O)C/C=C/C[C@@H]1O[C@@H]2/C=C/C/C=C/C(C)=C\[C@H]3O[C@@H](C/C=C/C=C/C(=O)O[C@H](C2)[C@@]1(C)CO)C[C@H](O)[C@H]3C
GI50 [1]: 20 nM
GI50 [2]: 2000 nM
GI50 [3]: 40 nM

C=C(CCC(C)C)COC(=O)[C@@H](O)C/C=C\C[C@@H]1O[C@@H]2/C=C\C/C=C/C(C)=C\[C@H]3O[C@@H](C/C=C/C=C/C(=O)O[C@H](C2)[C@@]1(C)CO)C[C@H](O)[C@H]3C
GI50 [1]: 5000 nM
GI50 [2]: > 10000 nM
GI50 [3]: 5000 nM

C=C(CCC(C)C)COC(=O)[C@@H](O)C/C=C\C[C@@H]1O[C@@H]2/C=C/C/C=C/C(C)=C\[C@H]3O[C@@H](C/C=C/C=C/C(=O)O[C@H](C2)[C@@]1(C)CO)C[C@H](O)[C@H]3C
GI50 [1]: < 3 nM
GI50 [2]: 50 nM
GI50 [3]: 9 nM

C=C(CCC(C)C)COC(=O)[C@@H](O)C/C=C/C[C@@H]1O[C@@H]2/C=C/C/C=C/C(C)=C\[C@H]3O[C@@H](C/C=C/C=C/C(=O)O[C@H](C2)[C@@]1(C)CO)C[C@H](O)[C@H]3C
GI50 [1]: 40 nM
GI50 [2]: 3200 nM
GI50 [3]: 100 nM

C=C(CCC(C)C)COC(=O)[C@H](O)C/C=C\C[C@@H]1O[C@@H]2/C=C/C/C=C/C(C)=C\[C@H]3O[C@@H](C/C=C/C=C/C(=O)O[C@H](C2)[C@@]1(C)CO)C[C@H](O)[C@H]3C [LASONOLIDE A]
GI50 [1]: < 3 nM
GI50 [2]: 20 nM
GI50 [3]: < 3 nM
